Measurements taken from publication PMC9120487, “Cryo-EM structures define ubiquinone-10 binding to mitochondrial complex I and conformational transitions accompanying Q-site occupancy” (Nature Communications, 2022).

How the values were obtained:
[1] = target: T1, bovine mitochondrial complex I (CxI-ND) (Bos taurus, UniProt P03887+P03898+P17694+P42026); assay: cryo-EM structure, […] Å; details: oxidised resting enzyme in nanodiscs, active state; Q-binding channel between NDUFS2, NDUFS7 and ND1; pH 7.5
T1 construct: gene NDUFS2; native 45-subunit complex (14 core, 31 supernumerary); NDUFS2 residue 129 modelled as Arg, NDUFA10 residue 255 as Lys; human subunit nomenclature; with NADH dehydrogenase [ubiquinone] flavoprotein 1, mitochondrial; NADH dehydrogenase [ubiquinone] flavoprotein 2, mitochondrial; NADH-ubiquinone oxidoreductase 75 kDa subunit, mitochondrial; NADH dehydrogenase [ubiquinone] iron-sulfur protein 3, mitochondrial; NADH dehydrogenase [ubiquinone] iron-sulfur protein 8, mitochondrial; NADH-ubiquinone oxidoreductase chain 2; NADH-ubiquinone oxidoreductase chain 3; NADH-ubiquinone oxidoreductase chain 4; NADH-ubiquinone oxidoreductase chain 4L; NADH-ubiquinone oxidoreductase chain 5; NADH-ubiquinone oxidoreductase chain 6

[2] = target: T1, bovine mitochondrial complex I (CxI-ND); assay: NADH:dQ oxidoreductase activity, […]-380 nm; type: biochemical; details: DDM-solubilised enzyme; 200 µM dQ, 200 µM NADH, 0.15% asolectin/CHAPS; pH 7.5, 32 °C; piericidin-sensitive rate

Row | SMILES | cryo-EM structure, 2.84 Å [1] | NADH:dQ oxidoreductase activity, 340-380 nm [2]
1 | COC1=C(OC)C(=O)C(C/C=C(\C)CC/C=C(\C)CC/C=C(\C)CC/C=C(\C)CC/C=C(\C)CC/C=C(\C)CC/C=C(\C)CC/C=C(\C)CC/C=C(\C)CCC=C(C)C)=C(C)C1=O [Q10, ubiquinone-10] | In active-Q10, the Q10 density occupies the entirety of the channel | –
2 | CCCCCCCCCCC1=C(C)C(=O)C(OC)=C(OC)C1=O [dQ, decylubiquinone] | – | piericidin-sensitive NADH:dQ oxidoreductase activity of the DDM-solubilised enzyme before reconstitution
